Among the data in patent publication US9957251B2 (Takeda Pharmaceutical Company Limited, priority 2014, dated 2018) are inhibition values, retold here.

In one assay the target is T1, CDK19 (CDC2L6/CycC) (Homo sapiens, UniProt Q9BWU1).
T1 construct: purchased Carna Biosciences
Nature of the assay: CDK19 inhibitory activity (TR-FRET, Kinase Tracer-236 displacement). As to conditions: 1 μM of the test compound; read-out: Percent inhibition of CDK19 activity (%). The class given is binding. As for the experimental part: (§1) The compound of the present invention was evaluated for its CDK8 inhibitory activity and CDK19 inhibitory activity by the following method. […] The primary diluted solution was dispensed in the amount of 2 μL/well to a 384-well plate, and then, a mixed solution of Eu^3+ Cryptate conjugated mouse monoclonal antibody anti-glutathione S-transferase (Cisbio) diluted 267-fold with an assay buffer and 60 nM Kinase Tracer-236 (Life technologies) was added thereto at 2 μL/well. After the addition, each kinase solution (84 ng/mL CDK8/CycC (Carna Biosciences) diluted with an assay buffer used for CDK8 inhibitory activity measurement, and 87 ng/mL CDC2L6/CycC (Carna Biosciences) diluted with an assay buffer used for CDK19 inhibitory activity measurement) was further added thereto at 2 μL/well. After the addition, the plate was left standing at room temperature for 1 hour, and then, the fluorescence intensity (excitation wavelength 320 nm, fluorescence wavelength 615 nm, 665 nm, delay time 50 μsec) was measured using an EnVision plate reader (PerkinElmer).
(In general: Time-resolved FRET reads energy transfer from a long-lived donor to a nearby acceptor.)

Another assay deals with T2, CDK8/CycC (Homo sapiens, UniProt P49336).
T2 construct: purchased Carna Biosciences
T2 sequence (P49336 whole entry): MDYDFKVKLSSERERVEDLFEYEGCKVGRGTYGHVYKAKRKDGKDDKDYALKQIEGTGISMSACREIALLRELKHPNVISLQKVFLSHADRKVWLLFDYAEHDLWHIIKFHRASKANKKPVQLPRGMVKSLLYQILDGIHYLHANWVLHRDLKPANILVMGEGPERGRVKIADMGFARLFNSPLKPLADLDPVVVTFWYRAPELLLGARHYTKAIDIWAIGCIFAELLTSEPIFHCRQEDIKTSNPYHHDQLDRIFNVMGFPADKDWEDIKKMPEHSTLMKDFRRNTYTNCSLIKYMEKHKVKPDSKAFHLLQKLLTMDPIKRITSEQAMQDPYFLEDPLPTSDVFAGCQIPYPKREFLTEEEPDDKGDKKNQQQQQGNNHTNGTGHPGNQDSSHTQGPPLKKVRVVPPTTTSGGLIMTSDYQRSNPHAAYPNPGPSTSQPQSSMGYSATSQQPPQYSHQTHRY
T2 sequence (P24863 whole entry partner): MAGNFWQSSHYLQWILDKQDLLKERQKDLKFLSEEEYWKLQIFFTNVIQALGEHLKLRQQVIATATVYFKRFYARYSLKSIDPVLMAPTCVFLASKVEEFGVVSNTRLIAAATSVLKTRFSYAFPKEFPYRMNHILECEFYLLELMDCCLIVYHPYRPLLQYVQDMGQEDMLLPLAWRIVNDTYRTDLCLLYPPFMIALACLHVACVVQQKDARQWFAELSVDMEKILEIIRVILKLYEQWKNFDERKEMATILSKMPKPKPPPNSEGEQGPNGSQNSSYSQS
Nature of the assay: CDK8 inhibitory activity (TR-FRET, Kinase Tracer-236 displacement). The class given is binding. Conditions: 1 μM of the test compound; read-out: Percent inhibition of CDK8 activity (%). As for the experimental part:
as §1

In assay [1] the test system is human multiple myeloma RPMI8226 cells. Nature of the assay: Inhibitory activity against human multiple myeloma RPMI8226 cell growth (CellTiter-Glo). The class given is cell-based. Conditions: Homo sapiens, RPMI-8226, 192 h, 1 μM of the test compound, cultured for 8 days; read-out: Percent inhibition of RPMI8226 cell growth (%). As for the experimental part:
The compound of the present invention was evaluated for its inhibitory activity against human multiple myeloma RPMI8226 cell growth by the following method.
A suspension of human multiple myeloma RPMI8226 cells (purchased from the Health Protection Agency) was inoculated at 40 μL (300 cells/well) to a 384-well plate and cultured at 37° C. for 1 day in a 5% CO2 incubator. After the culture, each test compound solution was added thereto at a test concentration of 1 μM using TECAN D300, and the cells were further cultured for 8 days. After the culture, CellTiter-Glo™ Luminescent Cell Viability Assay reagent (Promega) was added at 40 μL/well to a 384-well plate, and the amount of luminescence was measured using a luminometer. Inhibitory activity against human multiple myeloma RPMI8226 cell growth (percent inhibition (%)) of the test compound was calculated according to the following formula, which is based on the hypothesis that the amount of residual ATP reflects the number of cells. In this formula, 100% control represents the amount of luminescence from a well with only 0.1% DMSO added. Percent inhibition (%)=(1−(amount of luminescence of the test compound)÷(100% control))×100
(In general: In ATP-based viability assays light output follows the ATP content of the culture.)

T1 sequence (Q9BWU1 whole entry): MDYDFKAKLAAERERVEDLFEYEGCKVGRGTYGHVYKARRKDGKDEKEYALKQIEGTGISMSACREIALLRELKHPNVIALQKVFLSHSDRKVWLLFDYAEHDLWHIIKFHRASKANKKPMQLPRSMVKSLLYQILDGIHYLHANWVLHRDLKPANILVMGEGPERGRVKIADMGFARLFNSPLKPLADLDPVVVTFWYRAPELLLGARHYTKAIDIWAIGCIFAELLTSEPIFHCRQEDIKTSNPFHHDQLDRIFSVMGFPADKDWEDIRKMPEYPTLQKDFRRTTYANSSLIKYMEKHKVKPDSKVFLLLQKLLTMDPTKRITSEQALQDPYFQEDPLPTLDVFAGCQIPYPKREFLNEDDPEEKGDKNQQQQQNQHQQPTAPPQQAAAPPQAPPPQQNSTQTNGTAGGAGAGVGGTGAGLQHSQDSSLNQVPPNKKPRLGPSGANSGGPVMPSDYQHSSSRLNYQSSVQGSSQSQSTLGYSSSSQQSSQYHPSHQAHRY
T1 sequence (P24863 whole entry partner): as the sequence (P24863 whole entry partner) above

The term inhibition denotes the relative decrease from the control value, in per cent. `Cn1cc(-c2ccncc2/C=C/C(=O)Nc2ccc(N3CC(F)(F)C3)cc2)cn1` [Example 363, (2E)-N-(4-(3,3-difluoroazetidin-1-yl)phenyl)-3-(4-(1-methyl-1H-pyrazol-4-yl)pyridin-3-yl)acrylamide]: the inhibition at 1 µM at CDK19 (CDC2L6/CycC) is 99%; on CDK8/CycC it was 105%; in assay [1], 50%.

For the compound `CC(C)(O)Cc1ccc(NC(=O)/C=C/c2cnccc2-c2cnn(C3CC3)c2)cc1` [Example 143, (2E)-3-(4-(1-cyclopropyl-1H-pyrazol-4-yl)pyridin-3-yl)-N-(4-(2-hydroxy-2-methylpropyl)phenyl)acrylamide], the inhibition at 1 µM was found to be 103% on CDK19 (CDC2L6/CycC), 100% on CDK8/CycC and 61% in assay [1].

Regarding `CN1CCc2ccc(NC(=O)/C=C/c3cnccc3-c3cnn(C)c3)cc2C1` [Example 212, (2E)-3(4-(1-methyl-1H-pyrazol-4-yl)pyridin-3-yl)-N-(2-methyl-1,2,3,4-tetrahydroisoquinolin-7-yl)acrylamide], the figures for the inhibition at 1 µM (on CDK19 (CDC2L6/CycC); on CDK8/CycC; in assay [1]) were 98%, 100% and 52%, respectively.

For `Cn1cc(-c2ccncc2/C=C/C(=O)Nc2ccc3c(c2)CCN3)cn1` [Example 280, (2E)-N-(2,3-dihydro-1H-indol-5-yl)-3-(4-(1-methyl-1H-pyrazol-4-yl)pyridin-3-yl)acrylamide], the inhibition at 1 µM came to 96% on CDK19 (CDC2L6/CycC), 97% at CDK8/CycC and 58% in assay [1].

Regarding `Cn1cc(-c2ccncc2/C=C/C(=O)Nc2ccc(CN3CC4CCC(C3)O4)cc2)cn1` [Example 50, (2E)-3-(4-(1-methyl-1H-pyrazol-4-yl)pyridin-3-yl)-N-(4-(8-oxa-3-azabicyclo[3.2.1]oct-3-ylmethyl)phenyl)acrylamide], the inhibition at 1 µM at CDK19 (CDC2L6/CycC) was determined as 97%; on CDK8/CycC it was 96%; in assay [1], 61%.

In the case of `Cn1cc(-c2ccncc2/C=C/C(=O)Nc2ccc(CN3CCC4(CC3)COC4)cc2)cn1` [Example 84, (2E)-3-(4-(1-methyl-1H-pyrazol-4-yl)pyridin-3-yl)-N-(4-(2-oxa-7-azaspiro[3.5]non-7-ylmethyl)phenyl)acrylamide], the inhibition at 1 µM at CDK19 (CDC2L6/CycC) stood at 97%; on CDK8/CycC, 97%; in assay [1], 60%.

As to `Cn1cnc2ccc(-c3c(F)cncc3/C=C/C(=O)Nc3ccc4c(c3)CN(CC(F)(F)F)C4)cc21` [Example 357, (2E)-3-(5-fluoro-4-(1-methyl-1H-benzimidazol-6-yl)pyridin-3-yl)-N-(2-(2,2,2-trifluoroethyl)-2,3-dihydro-1H-isoindol-5-yl)acrylamide], the inhibition at 1 µM came out at 96% on CDK19 (CDC2L6/CycC), 101% on CDK8/CycC and 69% in assay [1].

`CC(C)(F)Cc1ccc(NC(=O)/C=C/c2cncc(F)c2-c2cnn(C3CC3)c2)cc1` [Example 348, (2E)-3-(4-(1-Cyclopropyl-1H-pyrazol-4-yl)-5-fluoropyridin-3-yl)-N-(4-(2-fluoro-2-methylpropyl)phenyl)acrylamide]: the inhibition at 1 µM at CDK19 (CDC2L6/CycC) was determined as 101%; on CDK8/CycC, 99%; in assay [1], 62%.

As for `Cn1cc(-c2ccncc2/C=C/C(=O)Nc2ccc3c(c2)CCO3)cn1` [Example 172, (2E)-N-(2,3-dihydro-1-benzofuran-5-yl)-3-(4-(1-methyl-1H-pyrazol-4-yl)pyridin-3-yl)acrylamide], the inhibition at 1 µM on CDK19 (CDC2L6/CycC) is 95%; on CDK8/CycC it was 96%; in assay [1], 55%.

`Cn1cc(-c2ccncc2/C=C/C(=O)Nc2ccc(CN3CCOCC3)cc2)cn1` [Example 31, (2E)-3-(4-(1-Methyl-1H-pyrazol-4-yl)pyridin-3-yl)-N-(4-(morpholin-4-ylmethyl)phenyl)acrylamide]: the inhibition at 1 µM amounted to 98% on CDK19 (CDC2L6/CycC), 100% on CDK8/CycC and 60% in assay [1].

On to `O=C(/C=C/c1cnccc1-c1ccc2[nH]cnc2c1)Nc1ccc(CN2CCOCC2)cc1` [Example 241, (2E)-3-(4-(1H-benzimidazol-5-yl)pyridin-3-yl)-N-(4-(morpholin-4-ylmethyl)phenyl)acrylamide], for which the figures for the inhibition at 1 µM (at CDK19 (CDC2L6/CycC); on CDK8/CycC; in assay [1]) were 101%, 99% and 66%, respectively.

Turning to `Cn1cc(-c2ccncc2/C=C/C(=O)Nc2ccc3c(c2)OCO3)cn1` [Example 163, (2E)-N-(1,3-benzodioxol-5-yl)-3-(4-(1-methyl-1H-pyrazole-4-yl)pyridin-3-yl)acrylamide], the inhibition at 1 µM on CDK19 (CDC2L6/CycC) was 94%; on CDK8/CycC, 96%; in assay [1] it was 53%.

As for `O=C(/C=C/c1cnccc1-c1cnn(C2CC2)c1)Nc1ccc2c(c1)CN(CC(F)(F)F)CC2` [Example 247, (2E)-3-(4-(1-Cyclopropyl-1H-pyrazol-4-yl)pyridin-3-yl)-N-(2-(2,2,2-trifluoroethyl)-1,2,3,4-tetrahydroisoquinolin-7-yl)acrylamide], the inhibition at 1 µM at CDK19 (CDC2L6/CycC) is 102%; at CDK8/CycC, 98%; in assay [1], 63%.

`O=C(/C=C/c1cncc(F)c1-c1cnn(C2CC2)c1)Nc1ccc2c(c1)OCCO2` [Example 331, (2E)-3-(4-(1-cyclopropyl-1H-pyrazol-4-yl)-5-fluoropyridin-3-yl)-N-(2,3-dihydro-1,4-benzodioxin-6-yl)acrylamide]: the inhibition at 1 µM at CDK19 (CDC2L6/CycC) was determined as 98%; on CDK8/CycC, 103%; in assay [1] it was 65%.

As for `O=C(/C=C/c1cnccc1-c1cnn(CC2CC2)c1)Nc1ccc(CCN2CCOCC2)cc1` [Example 108, (2E)-3-(4-(1-(cyclopropylmethyl)-1H-pyrazol-4-yl)pyridin-3-yl)-N-(4-(2-(morpholin-4-yl)ethyl)phenyl)acrylamide], the inhibition at 1 µM on CDK19 (CDC2L6/CycC) was determined as 97%; on CDK8/CycC, 94%; in assay [1] it was 58%.

Consider `Cn1cc(-c2ccncc2/C=C/C(=O)Nc2ccc(Cn3ccnc3)cc2)cn1` [Example 275, (2E)-N-(4-(1H-Imidazol-1-ylmethyl)phenyl)-3-(4-(1-methyl-1H-pyrazol-4-yl)pyridin-3-yl)acrylamide], for which the figures for the inhibition at 1 µM (on CDK19 (CDC2L6/CycC); on CDK8/CycC; in assay [1]) were 98%, 102% and 64%, respectively.

In the case of `COC1CN(Cc2ccc(NC(=O)/C=C/c3cncc(F)c3-c3cnn(C4CC4)c3)cc2)C1` [Example 345, (2E)-3-(4-(1-Cyclopropyl-1H-pyrazol-4-yl)-5-fluoropyridin-3-yl)-N-(4-((3-methoxyazetidin-1-yl)methyl)phenyl)acrylamide], the inhibition at 1 µM at CDK19 (CDC2L6/CycC) worked out at 100%; at CDK8/CycC, 101%; in assay [1], 63%.

`O=C(/C=C/c1cnccc1-c1cnn(C2CC2)c1)Nc1ccc2c(c1)CN(CC(F)(F)CO)C2` [Example 340, (2E)-3-(4-(1-cyclopropyl-1H-pyrazol-4-yl)pyridin-3-yl)-N-(2-(2,2-difluoro-3-hydroxypropyl)-2,3-dihydro-1H-isoindol-5-yl)acrylamide]: the inhibition at 1 µM worked out at 96% on CDK19 (CDC2L6/CycC), 102% on CDK8/CycC and 65% in assay [1].

With `Cn1cc(-c2ccncc2/C=C/C(=O)Nc2ccc3ncsc3c2)cn1` [Example 169, (2E)-N-(1,3-benzothiazol-6-yl)-3-(4-(1-methyl-1H-pyrazol-4-yl)pyridin-3-yl)acrylamide], the inhibition at 1 µM at CDK19 (CDC2L6/CycC) was determined as 90%; on CDK8/CycC, 94%; in assay [1], 53%.

As for `O=C(/C=C/c1cnccc1-c1cnn(C2CC2)c1)Nc1ccc(CN2CC(F)C2)cc1` [Example 365, (2E)-3-(4-(1-Cyclopropyl-1H-pyrazol-4-yl)pyridin-3-yl)-N-(4-((3-fluoroazetidin-1-yl)methyl)phenyl)acrylamide], the results for the inhibition at 1 µM (at CDK19 (CDC2L6/CycC); on CDK8/CycC; in assay [1]) were 99%, 107% and 58%, respectively.

Take `Cn1cc(-c2ccncc2/C=C/C(=O)Nc2ccc3c(c2)CN(CC(F)F)C3)cn1` [Example 342, (2E)-N-(2-(2,2-difluoroethyl)-2,3-dihydro-1H-isoindol-5-yl)-3-(4-(1-methyl-1H-pyrazol-4-yl)pyridin-3-yl)acrylamide]: the inhibition at 1 µM on CDK19 (CDC2L6/CycC) was 94%; on CDK8/CycC it was 105%; in assay [1], 63%.
